# Assay results reported in patent US12303587B2, “Extract of Moringa peregrina seed cake, method for obtaining same and use thereof in cosmetic or nutricosmetic compositions” (AGENCE FRANCAISE POUR LE DEVELOPPEMENT D'AL ULA, priority 2020, dated 2025).
# Experiments:
# [1] = tested on: mouse embryo fibroblasts of the Balb/c 3T3 clone 31 line; experiment: In vitro phototoxicity test 3T3 NRU; format: cell-based; settings: BALB/c3T3, light or radiation study
# Protocol: The cytotoxicity is evaluated by determining cell viability using a vital stain: neutral red, 24 hours after treatment with the reference elements and the extract of M. peregrina according to the invention with or without UVA irradiation. […] The positive control is a chlorpromazine solution (CAS No.: 69-09-0). The negative control is a diluent for the test extract and for the reference (buffered saline solution±1% solvent). The peptide hydrolyzate was tested at eight concentrations in at least four culture wells per concentration studied, in the presence or absence of UVA. […]
# The seeded plates were incubated for 24 hours at 37° C. and 5% CO2. […] The pH of the highest concentration was measured; it was between 6.5 and 7.8. […] The spectral irradiance of the test device was measured in the wavelength range from 250 to 700 nanometers with a calibrated spectroradiometer.
# One of the two plates was irradiated with its cover on at room temperature, and the other plate was protected from UVA and was maintained at room temperature during the irradiation. […] The next day, the cell viability (growth, morphology, monolayer integrity) was evaluated by observations using a phase-contrast microscope. […] The absorbance values were measured at 450 nm.
# DKK-1 = DKK-1 synthesis and release, ELISA; format: cell-based, human; settings: tested at 100 nm; p<0.01
# Description: The object of this study is to evaluate the effect of the compound known as “peregrina peptide hydrolyzate” on DKK-1 synthesis and release in a model composed of normal human fibroblasts in monolayer culture.
# Protocol: Human fibroblast cells were obtained from a donor. To perform the experiments, the fibroblasts were grown as a monolayer culture until confluence was reached. 100 nM dexamethasone was used as a reference inducer of DKK-1 synthesis and release.
# […] were incubated for 48 hours in the absence (control) or presence of reference product or test product: Peregrina peptide hydrolyzate: 0.01%; 0.1% and 0.5% (v/v).
# At the end of the incubation, the incubation media were removed to perform the DKK-1 release measurement.
# The test compound “peregrina peptide hydrolyzate” was diluted directly in the incubation medium so as to reach the various concentrations described above.
# At the end of the 48-hour incubation period, the DKK-1 released into the incubation media was quantified by means of a specific sensitive ELISA kit.
# At the end of the incubation period, the proteins contained in the cell lyzates were quantified by means of a spectrocolorimetric method (Bradford method).
# The results are expressed as ng DKK-1 per mg of protein (mean±S.D.).
Compound,IC50 ([1]; in the absence of UVA) [µg/mL],IC50 ([1]; in the presence of UVA) [µg/mL],increase of released DKK-1 relative to the control (DKK-1) [%]
"CN(C)CCCN1c2ccccc2Sc2ccc(Cl)cc21 [Chlorpromazine, chlorpromazine]",7 to 90,0.1 to 2,–
C[C@@H]1C[C@H]2[C@@H]3CCC4=CC(=O)C=C[C@]4(C)[C@@]3(F)[C@@H](O)C[C@]2(C)[C@@]1(O)C(=O)CO [dexamethasone],–,–,181.8
